# Source: paper PMC10101059, “Rational Design of Stapled Antimicrobial Peptides to Enhance Stability and In Vivo Potency against Polymicrobial Sepsis” (Microbiology Spectrum, 2023)
# Read-outs that look alike come from different tables or passages of the source. Bridge positions count the residues as written; N and C are the ends. Square brackets hold non-standard residues; d marks the D form. Peptide text beside a SMILES is read from it. R5 = C=CCCC[C@@](C)(N)C(=O)O
# How the values were obtained:
# [1] = tested on: A. baumannii biofilm; assay: Biofilm rupture assay; type: cell-based, Acinetobacter baumannii; settings: even at 4× MIC
# Protocol: (ii) Biofilm rupture assay. Fifty μL of A. baumannii bacterial strains suspension cultures (2 × 10^6 CFU/mL) were plated and incubated in a shaking incubator for 24 h. Then, the wells were washed with PBS and treated with 100 μL of peptide/drug at various concentrations. The plates were incubated for 24 h and then washed with PBS. The wells were treated with 100% methanol for 15 min, and the residual solution was washed followed by drying at room temperature. After the wells were dry, 100 μL of 0.02% crystal violet solution was added, followed by incubation for 30 min at room temperature. The wells were then washed with water and dried for an appropriate length of time. Once the wells were dry, 100 μL of 33% acetic acid was added to the wells and they were incubated at room temperature for 1 h. Absorbance was recorded at 595 nm ([55]).
# [2] = tested on: Pseudomonas aeruginosa; assay: microbe, parasite or virus in culture; type: cell-based; settings: for MBC: read-out: MBC; for MIC: read-out: MIC
# Protocol: (§1) The antimicrobial assay was performed according to a modified National Committee for Clinical Laboratory Standards (NCCLS) protocol ([41], [42]). Briefly, 5 × 10^5 CFU/mL bacterial cells were treated with various peptide concentrations and incubated at 37 ± 2°C for 16 to 20 h. The lowest concentration with clear wells was recorded as the MIC for each test molecule. The clear wells were further plated in Mueller-Hinton agar (MHA) plates, followed by incubation overnight at 37 ± 2°C. After plating, the lowest concentration at which no growth was observed was recorded as the MBC. For the serum sensitivity assay, the antimicrobial activity of the peptides was tested in medium containing 50% human serum ([43], [44]).
# [3] = tested on: NDM-1 Klebsiella pneumoniae; assay: microbe, parasite or virus in culture; type: cell-based
# Protocol: as §1
# [4] = tested on: Enterobacter aerogenes; assay: microbe, parasite or virus in culture; type: cell-based
# Protocol: as §1
# [5] = tested on: Escherichia coli; assay: microbe, parasite or virus in culture; type: cell-based
# Protocol: as §1
# [6] = tested on: E. coli; assay: microbe, parasite or virus in culture; type: cell-based, Escherichia coli; settings: for MIC: read-out: Single drug treatment MIC; for TP4-3 and meropenem combined MIC: MIC of each agent in combination
# [7] = tested on: Acinetobacter baumannii; assay: microbe, parasite or virus in culture; type: cell-based; settings: for MBC: read-out: MBC; for MIC: read-out: MIC
# Protocol: as §1, with “[44]). The antimicrobial assay was performed in the presence of physiological ions and glucose. The test media were supplemented with MgCl2 (1 mM), CaCl2 (2 mM), NaCl (150 mM), KCl (4.5 mM), NH4Cl (6 μM) ([45], [46]), or glucose (0.2%) ([47]), followed by routine antimicrobial assay as described previously. For the pH sensitivity assay, the antimicrobial assay was performed in media adjusted to pH values ranging from 4 to 12. To estimate the effects of temperature on antimicrobial activity, the peptide was incubated for 1 h at temperatures ranging from 40 to 100°C ([48]), followed by the antimicrobial assay as described above.” for “[44]).”
# [8] = tested on: MDR A. baumannii 1702; assay: microbe, parasite or virus in culture; type: cell-based, Acinetobacter baumannii
# Protocol: as §1
# [9] = tested on: MDR A. baumannii 1019; assay: microbe, parasite or virus in culture; type: cell-based, Acinetobacter baumannii
# Protocol: as §1
# [10] = tested on: MDR A. baumannii 14B0091; assay: microbe, parasite or virus in culture; type: cell-based, Acinetobacter baumannii
# Protocol: as §1
# [11] = tested on: MDR A. baumannii 1033; assay: microbe, parasite or virus in culture; type: cell-based, Acinetobacter baumannii
# Protocol: as §1
# [12] = tested on: MDR A. baumannii 2088; assay: microbe, parasite or virus in culture; type: cell-based, Acinetobacter baumannii; settings: for MBC: read-out: MBC; for MIC: read-out: MIC
# Protocol: as §1
# [13] = tested on: MDR A. baumannii 3618; assay: microbe, parasite or virus in culture; type: cell-based, Acinetobacter baumannii
# Protocol: as §1
# [14] = tested on: MDR A. baumannii 2962; assay: microbe, parasite or virus in culture; type: cell-based, Acinetobacter baumannii
# Protocol: as §1
# [15] = tested on: MDR A. baumannii 1607; assay: microbe, parasite or virus in culture; type: cell-based, Acinetobacter baumannii; settings: for MBC: read-out: MBC
# Protocol: as §1
# [16] = tested on: MDR A. baumannii 2997; assay: microbe, parasite or virus in culture; type: cell-based, Acinetobacter baumannii
# Protocol: as §1
# [17] = tested on: MDR A. baumannii 2982; assay: microbe, parasite or virus in culture; type: cell-based, Acinetobacter baumannii
# Protocol: as §1
# [18] = Pseudomonas aeruginosa, MHB medium
# [19] = HS, 50% human serum containing MHB medium
# [20] = Klebsiella pneumoniae, MHB medium
# [21] = Klebsiella aerogenes, MHB medium
# [22] = Escherichia coli, HS, 50% human serum containing MHB medium
# [23] = 24 h pre-incubation in 50% human serum
# [24] = Acinetobacter baumannii, 1 h, agent pre-exposed to 40°C for 1 h
# [25] = Acinetobacter baumannii, 1 h, agent pre-exposed to 60°C for 1 h
# [26] = Acinetobacter baumannii, 1 h, agent pre-exposed to 80°C for 1 h
# [27] = Acinetobacter baumannii, preincubation in 50% human serum 2 h
# [28] = Acinetobacter baumannii, preincubation in 50% human serum 6 h
# [29] = Acinetobacter baumannii, preincubation in 50% human serum 12 h
# [30] = Acinetobacter baumannii, preincubation in 50% human serum 24 h
# [31] = Acinetobacter baumannii, MHB medium, read-out: MBC
# [32] = Acinetobacter baumannii, MHB medium, read-out: MIC
# [33] = HS, MH medium containing 50% human serum, read-out: MBC
# [34] = HS, MH medium containing 50% human serum, read-out: MIC
# [35] = Acinetobacter baumannii, MHB medium
# [36] = HS, MH medium containing 50% human serum
compound,measurement,setting,value
C[C@@H](O)[C@H]1C(=O)N2C(C(=O)O)=C(S[C@@H]3CN[C@H](C(=O)N(C)C)C3)[C@H](C)[C@H]12 [Meropenem],mature biofilm rupture,[1],minor potential for causing biofilm rupture
same,MBC,"[2]; Pseudomonas aeruginosa, HS, 50% human serum containing MHB medium",3.13 µM
same,MBC,[2]; [18],6.25 µM
same,MIC,[2]; [18],3.13 µM
same,MIC,[2],1.56 µM
same,MBC,[3]; [19],>25 µM
same,MIC,[3]; [19],>25 µM
same,MBC,[3]; [20],> 25 µM
same,MIC,[3]; [20],> 25 µM
same,MBC,[4]; [21],0.39 µM
same,MIC,[4]; [21],0.39 µM
same,MBC,[5]; [22],0.78 µM
same,MIC,[5]; [22],0.78 µM
same,MBC,"[5]; Escherichia coli, MHB medium",0.39 µM
same,MIC,"[5]; Escherichia coli, MHB medium",0.39 µM
same,MIC,[6]; Escherichia coli,3.13 µM
same,TP4-3 and meropenem combined MIC,[6]; TP4-3 and M,0.097 µM
same,reduction of activity,[7]; [23],2 fold
same,MBC,[7]; [24],6.25 µM
same,MIC,[7]; [24],6.25 µM
same,MBC,[7]; [25],6.25 µM
same,MIC,[7]; [25],6.25 µM
same,MBC,[7]; [26],12.5 µM
same,MIC,[7]; [26],12.5 µM
same,MBC,"[7]; Acinetobacter baumannii, 1 h, agent pre-exposed to 100°C for 1 h",> 25 µM
same,MBC,[7]; [27],6.25 to 12.5 µM
same,MIC,[7]; [27],6.25 µM
same,MBC,[7]; [28],6.25 to 12.5 µM
same,MIC,[7]; [28],6.25 µM
same,MBC,[7]; [29],12.5 µM
same,MIC,[7]; [29],6.25 µM
same,MBC,[7]; [30],25 µM
same,MIC,[7]; [30],12.5 µM
same,MIC,"[7]; Acinetobacter baumannii, agent pre-exposed to 100°C for 1 h",> 25 µM
same,MBC,[8]; [31],> 25 µM
same,MIC,[8]; [32],> 25 µM
same,MBC,[8]; [33],>25 µM
same,MIC,[8]; [34],>25 µM
same,MBC,[9]; [35],> 25 µM
same,MIC,[9]; [35],> 25 µM
same,MBC,[9]; [36],>25 µM
same,MIC,[9]; [36],>25 µM
same,MBC,[10]; [35],> 25 µM
same,MIC,[10]; [35],> 25 µM
same,MBC,[10]; [36],>25 µM
same,MIC,[10]; [36],>25 µM
same,MBC,[11]; [31],> 25 µM
same,MIC,[11]; [32],> 25 µM
same,MBC,[11]; [33],>25 µM
same,MIC,[11]; [34],>25 µM
same,MBC,[12]; [35],> 25 µM
same,MIC,[12]; [35],> 25 µM
same,MBC,[12]; [36],>25 µM
same,MIC,[12]; [36],>25 µM
same,MBC,[13]; [35],> 25 µM
same,MIC,[13]; [35],> 25 µM
same,MBC,[13]; [36],>25 µM
same,MIC,[13]; [36],>25 µM
same,MBC,[14]; [35],> 25 µM
same,MIC,[14]; [35],> 25 µM
same,MBC,[14]; [36],>25 µM
same,MIC,[14]; [36],>25 µM
same,MIC,[15]; [35],> 25 µM
same,MBC,[15]; [35],> 25 µM
same,MIC,[15]; [36],>25 µM
same,MBC,[15]; [36],>25 µM
same,MBC,[16]; [31],> 25 µM
same,MIC,[16]; [32],> 25 µM
same,MBC,[16]; [33],>25 µM
same,MIC,[16]; [34],>25 µM
same,MBC,[17]; [35],> 25 µM
same,MIC,[17]; [35],> 25 µM
same,MBC,[17]; [36],>25 µM
same,MIC,[17]; [36],>25 µM
"CC[C@H](C)[C@H](NC(=O)[C@@H](NC(=O)[C@@H](N)Cc1ccccc1)[C@@H](C)CC)C(=O)N[C@]1(C)CCCC=CCCC[C@](C)(C(=O)NCC(=O)N[C@@H](CC(C)C)C(=O)N[C@@H](Cc2ccccc2)C(=O)N[C@@H](CCCCN)C(=O)N[C@@H](CCCCN)C(=O)N[C@@H](CCCCN)C(=O)N[C@@H](C)C(=O)NCC(=O)N[C@@H](C)C(=O)N[C@]2(C)CCCC=CCCC[C@](C)(C(=O)N[C@H](C(=O)N[C@@H](CCCCN)C(=O)N[C@@H](CCCCN)C(=O)O)[C@@H](C)CC)NC(=O)[C@H](CCCCN)NC(=O)[C@H](CCCCN)NC(=O)[C@H](CCCCN)NC2=O)NC(=O)[C@H](CO)NC(=O)[C@H](CCCCN)NC(=O)[C@H](CCCCN)NC1=O [TP4-3] (H-FII[R5]KKS[R5]GLFKKKAGA[R5]KKK[R5]IKK-OH; staple 4-8, 18-22; N-terminus and C-terminus assumed)",mature biofilm rupture,[1],minor potential for causing biofilm rupture
same,MBC,[2],25 µM
same,MIC,[2],25 µM
same,MBC,[3]; NDM-1,25 µM
same,MIC,[3]; NDM-1,25 µM
same,MBC,[4],25 µM
same,MIC,[4],25 µM
same,MBC,[5],25 µM
same,MIC,[5],25 µM
same,TP4-3 and meropenem combined MIC,[6]; TP4-3 and D,6.25 µM
same,TP4-3 and meropenem combined MIC,[6]; TP4-3 and M,0.78 µM
same,MIC,[6],25 µM
same,reduction of activity,[7]; 12 h pretreatment in 50% human serum,2 fold
same,reduction of activity,[7]; [23],4 fold
same,reduction of activity (MBC),[7]; in pH 6,4 fold
same,lower bactericidal potency,[7]; media supplemented with CaCl2,≤ 8 fold
same,lower bactericidal potency,[7]; media supplemented with MgCl2,up to 4 fold
same,lowered bactericidal potency (MBC),"[7]; media supplemented with NaCl, KCl, or NH4Cl vs non-supplemented medium",up to 2 fold
same,MBC,[7]; pH 6,12.5 µM
same,MIC,[7]; pH 6,12.5 µM
same,MBC,[7]; pH 7.4,3.13 µM
same,MIC,[7]; pH 7.4,3.13 µM
same,MBC,[7]; pH 8,3.13 µM
same,MIC,[7]; pH 8,3.13 µM
same,MBC,[7]; pH 10,3.13 µM
same,MIC,[7]; pH 10,0.78 µM
same,MBC,[8]; MDR 1702,3.13 to 6.25 µM
same,MIC,[8]; MDR 1702,3.13 to 6.25 µM
same,MBC,[9]; MDR 1019,12.5 µM
same,MIC,[9]; MDR 1019,12.5 µM
same,MBC,[10]; MDR 14B0091,3.13 µM
same,MIC,[10]; MDR 14B0091,3.13 µM
same,MBC,[11]; MDR 1033,6.25 to 12.5 µM
same,MIC,[11]; MDR 1033,6.25 to 12.5 µM
same,MBC,[12]; MDR 2088,6.25 µM
same,MBC,[13]; MDR 3618,12.5 µM
same,MBC,[14]; MDR 2962,12.5 µM
same,MIC,[14]; MDR 2962,6.25 µM
same,MIC,[15]; MDR 1607,6.25 µM
same,MBC,[15]; MDR 1607,12.5 µM
same,MBC,[16]; MDR 2997,3.13 to 6.25 µM
same,MIC,[16]; MDR 2997,3.13 to 6.25 µM
same,MBC,[17]; MDR 2982,6.25 µM
same,MIC,[17]; MDR 2982,6.25 µM
